Measured values taken from ChEMBL document CHEMBL5634110, “Applications of oxetanes in drug discovery and medicinal chemistry” (Eur J Med Chem, 2023).
≈ marks a conversion by molar mass, not a printed value.

How the values were obtained:
Human orthopneumovirus = test: Antiviral activity against RSV type B assessed as viral growth inhibition; assay type: functional, organism-based; details: human respiratory syncytial virus
[1] = Apparent permeability of compound in phosphate buffer by PAMPA assay; assay type: ADME
[2] = Oral bioavailability in rat at 2 mg/kg; assay type: ADME, organism-based; details: in vivo
[3] = Oral bioavailability in monkey at 5 mg/kg; assay type: ADME, organism-based, Macaca mulatta; details: rhesus monkey, in vivo
[4] = target: T1, Developmentally-regulated GTP-binding protein 1 (Homo sapiens, UniProt Q9Y295); test: Inhibition of DRG1 (unknown origin)
T1 sequence (Q9Y295 whole entry): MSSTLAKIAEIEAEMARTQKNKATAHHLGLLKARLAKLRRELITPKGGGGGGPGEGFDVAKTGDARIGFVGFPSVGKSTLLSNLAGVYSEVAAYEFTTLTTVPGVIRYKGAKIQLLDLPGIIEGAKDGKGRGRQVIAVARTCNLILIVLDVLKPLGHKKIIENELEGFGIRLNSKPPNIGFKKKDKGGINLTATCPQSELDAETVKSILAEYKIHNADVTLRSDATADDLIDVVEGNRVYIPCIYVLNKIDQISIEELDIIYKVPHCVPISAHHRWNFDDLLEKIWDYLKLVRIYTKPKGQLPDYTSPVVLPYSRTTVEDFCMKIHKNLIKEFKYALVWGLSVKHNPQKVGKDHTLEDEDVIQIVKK

[5] = Half life in iv dosed rat; assay type: ADME, organism-based; details: in vivo
[6] = Oral bioavailability in rat; assay type: ADME, organism-based; details: in vivo
[7] = AUC in iv dosed rat; assay type: ADME, organism-based; details: in vivo
[8] = Solubility of compound in PBS at pH 7.4; assay type: physicochemical
[9] = Intrinsic clearance in rat liver microsomes; assay type: ADME, Microsome
[10] = Intrinsic clearance in human liver microsomes; assay type: ADME, Microsome; details: read-out: CLH
[11] = target: Hepatitis C virus NS5B RNA-dependent RNA polymerase (Hepatitis C virus, UniProt Q8JXU8); test: Inhibition of Hepatitis C virus NS5B polymerase; set-up: species or system Hepacivirus hominis
[12] = Metabolic stability in mouse liver microsomes assessed as half life at 1 uM incubated for 60 mins by LC-MS/MS analysis; assay type: ADME, Microsome
Z-138 = test: Growth inhibition of human Z138 cells; assay type: functional
[13] = Metabolic stability in rat liver microsomes assessed as half life at 1 uM incubated for 60 mins by LC-MS/MS analysis; assay type: ADME, Microsome
[14] = Metabolic stability in human liver microsomes assessed as half life at 1 uM incubated for 60 mins by LC-MS/MS analysis; assay type: ADME, Microsome
[15] = Kinetic solubility of compound in PBS buffer at 500 uM incubated for 18 hrs by HPLC analysis; assay type: physicochemical; details: read-out: Kinetic_solubility
Collagenase 3 = Collagenase 3 (Homo sapiens, UniProt P45452); test: Binding affinity to full length human recombinant MMP-13 using Mca-PLGL-Dpa-AR-NH2 as fluorogenic peptide substrate assessed as inhibition constant
[16] = target: Apoptosis regulator Bcl-2 (Homo sapiens, UniProt P10415); test: Inhibition of Bcl-2 (unknown origin) by fluorescence polarization assay
[17] = Inhibition of GST fused Bcl-xL (unknown origin) incubated for 5 min by TR-FRET assay; set-up: species or system Homo sapiens
[18] = AUC (0 to 24 hrs) in rat at 5 mg/kg, po; assay type: ADME, organism-based; details: in vivo
[19] = Tmax in rat at 5 mg/kg, po; assay type: ADME, organism-based; details: in vivo
[20] = Solubility of compound at pH 6.8; assay type: physicochemical; details: buffer
[21] = Intrinsic clearance in mouse liver microsomes; assay type: ADME, Microsome; details: read-out: CLH

Apoptosis regulator Bcl-2, sequence (P10415 whole entry, the tested form may be a part): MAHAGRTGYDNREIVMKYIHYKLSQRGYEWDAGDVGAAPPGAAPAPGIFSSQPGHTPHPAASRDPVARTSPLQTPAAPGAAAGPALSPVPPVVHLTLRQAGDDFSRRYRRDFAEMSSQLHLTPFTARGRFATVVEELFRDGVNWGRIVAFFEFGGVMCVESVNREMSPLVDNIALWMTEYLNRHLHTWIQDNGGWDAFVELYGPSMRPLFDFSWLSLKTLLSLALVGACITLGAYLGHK
Hepatitis C virus NS5B RNA-dependent RNA polymerase, sequence (Q8JXU8 whole entry): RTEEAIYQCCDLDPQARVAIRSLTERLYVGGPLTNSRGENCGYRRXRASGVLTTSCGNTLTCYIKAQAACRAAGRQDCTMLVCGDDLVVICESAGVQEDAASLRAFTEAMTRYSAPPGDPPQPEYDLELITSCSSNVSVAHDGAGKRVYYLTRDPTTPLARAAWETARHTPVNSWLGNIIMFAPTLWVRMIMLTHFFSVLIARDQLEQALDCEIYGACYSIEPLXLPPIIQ

O=C(NC1CC1)c1cc2c(s1)-c1ccccc1N(C(=O)c1ccc(NC(=O)c3cccnc3N3CCC4(CC3)COC4)cc1)CC2
EC50 (Human orthopneumovirus): > 100000 nM

COC(C)(C)C#Cc1cnc2c(c1)[C@]1(COC(N)=N1)c1cc(-c3cccnc3F)ccc1O2
Papp [1]: 12 ×10⁻⁶ cm/s

CC(C)(O)C#Cc1cnc2c(c1)[C@]1(COC(N)=N1)c1cc(-c3cccnc3F)ccc1O2
Papp [1]: 11 ×10⁻⁶ cm/s
bioavailability [2]: 70%
bioavailability [3]: 101%

CC(=O)N1CCC(c2cc(Nc3cc(C#N)ccn3)nc(N3CCC(F)(F)C3)c2)CC1
IC50 [4]: 180 nM

COC(=O)Nc1nc2cc(C(=O)c3ccc(N(C)C4COC4)cc3)ccc2[nH]1
half-life [5]: 5.5 h
bioavailability [6]: 73.1%
AUC [7]: 469 ng·h/mL
solubility [8]: 137 µg/mL (≈ 360 µM)

COc1cc(C(F)(F)F)ccc1COc1cccc(N2C=NN(Cc3nc4c(F)cc(C(=O)O)cc4n3C[C@@H]3CCO3)CC2)n1
CLH [9]: 12 µL/min/mg
microsomal CLint [10]: 12 µL/min/mg

COc1cc(C#N)ccc1COc1cccc(N2C=NN(Cc3nc4c(F)cc(C(=O)O)cc4n3C[C@@H]3CCO3)CC2)n1
microsomal CLint [10]: 6 µL/min/mg

Nc1nc2c(ncn2[C@@H]2O[C@H](COP(=O)(O)OP(=O)(O)OP(=O)(O)O)[C@@H](O)[C@@]23CCO3)c(=O)[nH]1
IC50 [11]: 10000 nM

CC(C)[C@H](NC(=O)c1ccc(-c2ccc(CNc3nc4c(c(=O)[nH]3)CCC4)c(F)c2)o1)C(=O)NC1COC1
half-life at 1 µM [12]: 1.58 h
GI50 (Z-138): 20 nM
half-life at 1 µM [13]: 1.67 h
half-life at 1 µM [14]: 1.1 h
solubility kinetic at 18 h, 500 µM [15]: 32.7 µM (≈ 17.1 µg/mL)
Ki (Collagenase 3): 10.3 nM

CC(C)[C@H](NC(=O)c1ccc(-c2ccc(CCc3nc4c(c(=O)[nH]3)CCC4)c(F)c2)o1)C(=O)NC1COC1
half-life at 1 µM [12]: 1.73 h
half-life at 1 µM [13]: 1.03 h
half-life at 1 µM [14]: 1.02 h
solubility kinetic at 18 h, 500 µM [15]: 76.4 µM (≈ 39.9 µg/mL)
Ki (Collagenase 3): 12.2 nM

CC1(C)CCC(c2ccc(Cl)cc2)=C(CN2CCN(c3ccc(C(=O)NS(=O)(=O)c4ccc(OCC5(CN6CC(F)(F)C6)COC5)c(S(=O)(=O)C(F)(F)F)c4)cc3)CC2)C1
IC50 [16]: 17.3 nM
IC50 [17]: 105 nM

CO[C@H]1C[C@@H](C)C/C(C)=C/[C@@H](C/C=C/C2(O)COC2)C(=O)C[C@H](O)[C@@H](C)[C@@H](/C(C)=C/[C@@H]2CC[C@@H](O)[C@H](OC)C2)OC(=O)[C@@H]2CCCCN2C(=O)C(=O)[C@]2(O)O[C@H]1[C@@H](OC)C[C@H]2C
AUC(0-t) [18]: 49100 ng·h/mL
Tmax [19]: 1 h

CC1(C)CCC(c2ccc(Cl)cc2)=C(CN2CCN(c3ccc(C(=O)NS(=O)(=O)c4ccc(N[C@H](CCN5CCOCC5)CSc5ccccc5)c(S(=O)(=O)C(F)(F)F)c4)cc3)CC2)C1 [NAVITOCLAX]
IC50 [17]: 8.2 nM

C=CC[C@@H]1/C=C(\C)C[C@H](C)C[C@H](OC)[C@H]2O[C@@](O)(C(=O)C(=O)N3CCCC[C@H]3C(=O)O[C@H](/C(C)=C/[C@@H]3CC[C@@H](O)[C@H](OC)C3)[C@H](C)[C@@H](O)CC1=O)[C@H](C)C[C@@H]2OC [TACROLIMUS ANHYDROUS]
solubility [20]: 28 µM (≈ 22.5 µg/mL)
AUC(0-t) [18]: 2490 ng·h/mL
Tmax [19]: 1 h
microsomal CLint [21]: 306 µL/min/mg
